From paper doi:10.1101/2023.11.24.568596v1 (biorxiv, 2023)
One block for each compound: values may come before it.

Experiments:
Settings in all cases: binder
[1] = biological target: JNK2 (Homo sapiens, UniProt P45984)
[2] = biological target: AAK1 (Homo sapiens, UniProt Q2M2I8)
[3] = biological target: T1, FECH (Homo sapiens, UniProt P22830)
T1 sequence (P22830 1-423): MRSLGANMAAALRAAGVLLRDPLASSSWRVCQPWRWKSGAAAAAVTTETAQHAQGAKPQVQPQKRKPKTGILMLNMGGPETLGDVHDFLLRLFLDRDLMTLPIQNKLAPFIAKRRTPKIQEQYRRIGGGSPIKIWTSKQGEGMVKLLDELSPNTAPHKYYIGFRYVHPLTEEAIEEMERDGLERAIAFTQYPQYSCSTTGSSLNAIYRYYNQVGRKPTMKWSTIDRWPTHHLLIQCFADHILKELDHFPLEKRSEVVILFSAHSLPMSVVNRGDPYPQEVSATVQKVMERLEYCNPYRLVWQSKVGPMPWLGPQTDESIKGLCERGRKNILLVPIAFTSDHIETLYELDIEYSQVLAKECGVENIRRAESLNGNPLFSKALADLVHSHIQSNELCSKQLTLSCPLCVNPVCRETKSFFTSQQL

[4] = biological target: PIM1 (Homo sapiens, UniProt P11309)
[5] = biological target: FGFR1 (Homo sapiens, UniProt P11362)
[6] = biological target: CLK3 (Homo sapiens, UniProt P49761)
[7] = biological target: p38a (Homo sapiens, UniProt Q16539)
[8] = biological target: NEK7 (Homo sapiens, UniProt Q8TDX7)
[9] = biological target: MAPKAPK2 (Homo sapiens, UniProt P49137)
[10] = biological target: T2, MARK4 (Homo sapiens, UniProt Q96L34)
T2 sequence (Q96L34 1-752): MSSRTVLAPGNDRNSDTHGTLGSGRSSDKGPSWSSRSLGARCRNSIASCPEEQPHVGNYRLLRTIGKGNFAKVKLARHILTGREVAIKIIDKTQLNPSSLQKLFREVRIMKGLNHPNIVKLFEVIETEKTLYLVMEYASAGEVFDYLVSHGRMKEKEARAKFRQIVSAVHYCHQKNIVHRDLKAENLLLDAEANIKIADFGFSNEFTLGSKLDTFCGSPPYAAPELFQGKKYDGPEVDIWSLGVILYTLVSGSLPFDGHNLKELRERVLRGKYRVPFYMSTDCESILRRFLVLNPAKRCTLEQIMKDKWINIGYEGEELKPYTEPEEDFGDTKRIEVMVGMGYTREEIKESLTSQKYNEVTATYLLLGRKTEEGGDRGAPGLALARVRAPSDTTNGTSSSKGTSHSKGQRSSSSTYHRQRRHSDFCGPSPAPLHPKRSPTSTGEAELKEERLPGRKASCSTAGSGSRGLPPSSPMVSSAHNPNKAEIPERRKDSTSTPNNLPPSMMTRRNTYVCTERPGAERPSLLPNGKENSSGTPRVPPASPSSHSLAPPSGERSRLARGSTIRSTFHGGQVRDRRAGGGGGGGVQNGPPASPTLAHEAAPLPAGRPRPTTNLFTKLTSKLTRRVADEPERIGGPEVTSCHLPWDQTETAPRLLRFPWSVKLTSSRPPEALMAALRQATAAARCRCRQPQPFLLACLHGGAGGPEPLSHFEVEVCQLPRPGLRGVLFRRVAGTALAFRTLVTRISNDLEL

[11] = biological target: T3, AurA (Homo sapiens, UniProt O14965)
T3 sequence (O14965 1-403): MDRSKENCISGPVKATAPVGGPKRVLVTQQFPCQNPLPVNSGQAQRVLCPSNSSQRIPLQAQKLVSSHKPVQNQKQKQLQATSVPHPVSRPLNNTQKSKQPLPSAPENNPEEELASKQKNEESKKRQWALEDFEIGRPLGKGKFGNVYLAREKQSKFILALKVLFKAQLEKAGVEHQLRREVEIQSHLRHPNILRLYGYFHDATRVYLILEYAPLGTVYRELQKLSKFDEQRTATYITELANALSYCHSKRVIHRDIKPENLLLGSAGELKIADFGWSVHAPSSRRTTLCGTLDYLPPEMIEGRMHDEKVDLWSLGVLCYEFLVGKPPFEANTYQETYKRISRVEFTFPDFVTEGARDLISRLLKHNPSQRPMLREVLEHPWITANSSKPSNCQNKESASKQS

[12] = biological target: JNK1 (Homo sapiens, UniProt P45983)
[13] = biological target: MRCKa (Homo sapiens, UniProt Q5VT25)

Chain of NEK7 (Q8TDX7 whole entry): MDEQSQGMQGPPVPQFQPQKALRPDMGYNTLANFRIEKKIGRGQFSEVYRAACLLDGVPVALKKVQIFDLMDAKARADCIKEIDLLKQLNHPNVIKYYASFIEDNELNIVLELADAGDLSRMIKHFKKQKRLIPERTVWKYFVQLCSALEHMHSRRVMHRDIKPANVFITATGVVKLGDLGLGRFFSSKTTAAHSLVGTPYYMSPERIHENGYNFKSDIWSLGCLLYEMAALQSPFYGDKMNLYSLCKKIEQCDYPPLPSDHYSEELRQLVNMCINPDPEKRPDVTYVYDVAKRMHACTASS
Chain of JNK2 (P45984 whole entry): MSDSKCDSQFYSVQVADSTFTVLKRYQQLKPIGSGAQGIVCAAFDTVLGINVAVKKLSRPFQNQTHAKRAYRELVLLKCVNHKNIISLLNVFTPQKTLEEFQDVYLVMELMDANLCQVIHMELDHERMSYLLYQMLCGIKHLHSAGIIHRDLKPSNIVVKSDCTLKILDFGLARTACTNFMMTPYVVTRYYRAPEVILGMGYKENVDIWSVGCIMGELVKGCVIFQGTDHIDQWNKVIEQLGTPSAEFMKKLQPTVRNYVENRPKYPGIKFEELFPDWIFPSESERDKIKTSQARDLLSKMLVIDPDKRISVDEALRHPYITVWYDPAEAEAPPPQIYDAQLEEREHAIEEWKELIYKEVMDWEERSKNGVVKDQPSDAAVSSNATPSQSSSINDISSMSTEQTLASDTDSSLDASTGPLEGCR
Chain of MAPKAPK2 (P49137 whole entry): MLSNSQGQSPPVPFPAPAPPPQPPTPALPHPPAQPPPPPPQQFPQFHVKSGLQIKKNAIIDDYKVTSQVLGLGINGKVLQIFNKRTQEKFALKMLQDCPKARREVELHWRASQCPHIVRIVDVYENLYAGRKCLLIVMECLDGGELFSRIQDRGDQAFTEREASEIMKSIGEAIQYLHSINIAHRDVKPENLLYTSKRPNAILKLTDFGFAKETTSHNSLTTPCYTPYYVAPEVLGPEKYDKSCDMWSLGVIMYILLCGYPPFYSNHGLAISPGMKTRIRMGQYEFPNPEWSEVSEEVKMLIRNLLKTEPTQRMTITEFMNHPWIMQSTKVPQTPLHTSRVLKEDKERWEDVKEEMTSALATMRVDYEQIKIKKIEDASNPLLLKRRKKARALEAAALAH
Chain of AAK1 (Q2M2I8 whole entry): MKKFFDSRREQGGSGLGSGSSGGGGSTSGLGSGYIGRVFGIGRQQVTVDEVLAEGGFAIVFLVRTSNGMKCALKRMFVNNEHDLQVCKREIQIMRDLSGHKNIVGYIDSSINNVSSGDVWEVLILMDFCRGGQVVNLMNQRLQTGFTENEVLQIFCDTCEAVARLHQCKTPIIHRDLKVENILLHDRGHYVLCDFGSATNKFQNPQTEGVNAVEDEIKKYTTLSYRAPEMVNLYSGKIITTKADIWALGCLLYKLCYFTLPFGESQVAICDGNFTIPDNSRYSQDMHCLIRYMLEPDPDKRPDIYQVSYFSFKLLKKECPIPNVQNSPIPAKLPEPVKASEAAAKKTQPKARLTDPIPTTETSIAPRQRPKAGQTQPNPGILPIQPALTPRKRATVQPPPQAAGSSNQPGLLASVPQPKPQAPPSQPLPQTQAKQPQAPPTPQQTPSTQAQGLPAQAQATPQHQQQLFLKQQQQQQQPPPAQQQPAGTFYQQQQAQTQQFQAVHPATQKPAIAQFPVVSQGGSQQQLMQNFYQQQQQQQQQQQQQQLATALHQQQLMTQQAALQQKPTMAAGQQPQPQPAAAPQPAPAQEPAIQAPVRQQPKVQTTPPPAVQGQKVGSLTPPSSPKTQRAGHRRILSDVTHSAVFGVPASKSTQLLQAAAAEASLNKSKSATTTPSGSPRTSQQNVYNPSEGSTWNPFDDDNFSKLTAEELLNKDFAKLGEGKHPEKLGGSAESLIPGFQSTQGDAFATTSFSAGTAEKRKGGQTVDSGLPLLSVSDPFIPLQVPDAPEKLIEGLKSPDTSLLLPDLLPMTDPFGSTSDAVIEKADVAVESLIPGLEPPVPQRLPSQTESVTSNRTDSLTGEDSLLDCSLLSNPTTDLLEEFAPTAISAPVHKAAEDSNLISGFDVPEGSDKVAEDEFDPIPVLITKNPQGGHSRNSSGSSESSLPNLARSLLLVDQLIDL
Chain of FGFR1 (P11362 whole entry): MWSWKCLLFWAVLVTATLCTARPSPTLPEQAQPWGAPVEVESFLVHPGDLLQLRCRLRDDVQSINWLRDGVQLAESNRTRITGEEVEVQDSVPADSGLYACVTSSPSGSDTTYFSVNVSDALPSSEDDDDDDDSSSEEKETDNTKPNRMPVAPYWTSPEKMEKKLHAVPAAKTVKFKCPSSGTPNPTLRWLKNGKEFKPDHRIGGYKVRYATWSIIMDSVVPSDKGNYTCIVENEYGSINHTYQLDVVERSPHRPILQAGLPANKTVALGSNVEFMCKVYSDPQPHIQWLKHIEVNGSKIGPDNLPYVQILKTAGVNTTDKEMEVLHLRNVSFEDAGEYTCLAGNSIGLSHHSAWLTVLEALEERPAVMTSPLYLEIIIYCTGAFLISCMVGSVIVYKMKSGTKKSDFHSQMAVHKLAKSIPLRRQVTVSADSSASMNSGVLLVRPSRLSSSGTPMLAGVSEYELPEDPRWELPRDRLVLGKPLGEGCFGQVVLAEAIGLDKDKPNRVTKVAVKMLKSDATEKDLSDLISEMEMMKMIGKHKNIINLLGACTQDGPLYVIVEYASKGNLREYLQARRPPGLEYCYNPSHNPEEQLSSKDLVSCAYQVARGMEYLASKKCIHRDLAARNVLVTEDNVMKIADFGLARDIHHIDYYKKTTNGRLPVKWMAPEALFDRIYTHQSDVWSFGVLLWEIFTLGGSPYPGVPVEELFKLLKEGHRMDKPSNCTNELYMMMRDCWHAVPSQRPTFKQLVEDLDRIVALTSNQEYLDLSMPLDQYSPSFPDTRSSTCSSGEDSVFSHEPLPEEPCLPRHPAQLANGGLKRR
Chain of CLK3 (P49761 whole entry): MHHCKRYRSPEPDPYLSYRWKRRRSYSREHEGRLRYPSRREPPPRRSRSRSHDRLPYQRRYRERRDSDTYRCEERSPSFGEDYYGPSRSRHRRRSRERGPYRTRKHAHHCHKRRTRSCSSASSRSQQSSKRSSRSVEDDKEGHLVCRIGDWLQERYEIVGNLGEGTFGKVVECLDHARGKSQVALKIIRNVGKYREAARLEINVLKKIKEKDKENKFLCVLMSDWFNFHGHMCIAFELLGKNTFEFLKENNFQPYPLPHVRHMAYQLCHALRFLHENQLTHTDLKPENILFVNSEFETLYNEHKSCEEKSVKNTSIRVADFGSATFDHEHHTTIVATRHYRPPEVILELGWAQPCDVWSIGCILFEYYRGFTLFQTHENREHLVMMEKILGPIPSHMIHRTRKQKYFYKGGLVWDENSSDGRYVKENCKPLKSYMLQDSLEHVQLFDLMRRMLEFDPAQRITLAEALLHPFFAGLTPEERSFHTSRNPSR
Chain of JNK1 (P45983 whole entry): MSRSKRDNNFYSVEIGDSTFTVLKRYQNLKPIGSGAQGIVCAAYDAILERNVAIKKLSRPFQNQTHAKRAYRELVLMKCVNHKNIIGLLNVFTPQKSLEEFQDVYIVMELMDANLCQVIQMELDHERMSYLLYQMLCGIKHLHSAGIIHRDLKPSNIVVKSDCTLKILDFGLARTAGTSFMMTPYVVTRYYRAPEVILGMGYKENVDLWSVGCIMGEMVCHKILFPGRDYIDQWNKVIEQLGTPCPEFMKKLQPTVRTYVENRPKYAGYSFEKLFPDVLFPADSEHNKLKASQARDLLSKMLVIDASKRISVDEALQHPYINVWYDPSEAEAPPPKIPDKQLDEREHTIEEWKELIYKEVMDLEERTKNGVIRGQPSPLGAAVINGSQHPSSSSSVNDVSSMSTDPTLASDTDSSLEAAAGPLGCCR
Chain of p38a (Q16539 whole entry): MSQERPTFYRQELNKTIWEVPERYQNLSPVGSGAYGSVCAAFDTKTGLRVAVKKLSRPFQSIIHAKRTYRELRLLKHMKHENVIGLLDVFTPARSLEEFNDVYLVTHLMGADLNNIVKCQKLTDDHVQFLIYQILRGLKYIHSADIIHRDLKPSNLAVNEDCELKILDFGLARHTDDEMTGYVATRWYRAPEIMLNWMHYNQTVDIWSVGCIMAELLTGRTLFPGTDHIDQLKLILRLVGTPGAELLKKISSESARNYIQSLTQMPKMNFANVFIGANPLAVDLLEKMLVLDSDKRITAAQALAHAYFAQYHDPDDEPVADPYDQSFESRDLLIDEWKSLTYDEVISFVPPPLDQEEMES
Chain of PIM1 (P11309 whole entry): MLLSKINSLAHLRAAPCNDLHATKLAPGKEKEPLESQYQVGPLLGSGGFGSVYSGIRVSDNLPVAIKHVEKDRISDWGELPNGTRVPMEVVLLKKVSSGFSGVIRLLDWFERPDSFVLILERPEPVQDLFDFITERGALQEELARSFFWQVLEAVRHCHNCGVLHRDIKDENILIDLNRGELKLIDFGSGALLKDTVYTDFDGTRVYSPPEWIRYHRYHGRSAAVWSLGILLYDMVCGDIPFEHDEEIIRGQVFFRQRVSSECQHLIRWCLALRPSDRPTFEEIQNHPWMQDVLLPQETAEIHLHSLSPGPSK

dTm 33 [1]: 3.0 °C | dTm 33 [2]: 4.1 °C | dTm 33 [3]: -2.9 °C | dTm 33 [4]: 3.3 °C | dTm 33 [5]: 2.0 °C | dTm 33 [6]: -0.5 °C | dTm 33 [7]: 4.7 °C | dTm 33 [8]: -1.4 °C | dTm 33 [9]: -0.5 °C | dTm 33 [10]: 10.3 °C | dTm 33 [11]: 2.8 °C | dTm 33 [12]: 2.2 °C | dTm 33 [13]: 1.9 °C
Compound: Cc1cccc(-c2ccc(-c3cc4cnc(Nc5ccc(F)c(CO)c5)nc4n(CCCCN)c3=O)c(Cl)c2)n1 [compound 33, 8-(4-Aminobutyl)-6-(2-chloro-4-(6-methylpyridin-2-yl)phenyl)-2-((4-fluoro-3-(hydroxymethyl)phenyl)amino)pyrido[2,3-d]pyrimidin-7(8H)-one]

dTm 34 [1]: 0.3 °C | dTm 34 [2]: 1.4 °C | dTm 34 [3]: 3.2 °C | dTm 34 [4]: 2.7 °C | dTm 34 [5]: 0.9 °C | dTm 34 [6]: -1.0 °C | dTm 34 [7]: 3.0 °C | dTm 34 [8]: -1.0 °C | dTm 34 [9]: -0.1 °C | dTm 34 [10]: 4.6 °C | dTm 34 [11]: 3.4 °C | dTm 34 [12]: 1.8 °C | dTm 34 [13]: 0.8 °C
Compound: COc1ccc(O)c(Nc2ncc3cc(-c4ccc(-c5cccc(C)n5)cc4Cl)c(=O)n(CCCCN)c3n2)c1 [compound 34, 8-(4-Aminobutyl)-6-(2-chloro-4-(6-methylpyridin-2-yl)phenyl)-2-((2-hydroxy-5-methoxy-phenyl)amino)pyrido[2,3-d]pyrimidin-7(8H)-one]

dTm 35 [1]: 0.1 °C | dTm 35 [2]: 3.0 °C | dTm 35 [3]: 7.0 °C | dTm 35 [4]: -0.9 °C | dTm 35 [5]: 0.4 °C | dTm 35 [6]: -1.3 °C | dTm 35 [7]: 3.8 °C | dTm 35 [8]: -2.4 °C | dTm 35 [9]: -0.6 °C | dTm 35 [10]: 6.6 °C | dTm 35 [11]: 8.6 °C | dTm 35 [12]: 4.7 °C | dTm 35 [13]: -2.1 °C
Compound: COc1cc(N2CCOCC2)ccc1Nc1ncc2cc(-c3ccc(-c4cccc(C)n4)cc3Cl)c(=O)n(CCCCN)c2n1 [compound 35, 8-(4-Aminobutyl)-6-(2-chloro-4-(6-methylpyridin-2-yl)phenyl)-2-((2-methoxy-4-morpholino-phenyl)amino)pyrido[2,3-d]pyrimidin-7(8H)-one]

dTm 36 [1]: -0.3 °C | dTm 36 [2]: 2.4 °C | dTm 36 [3]: 3.0 °C | dTm 36 [4]: -0.1 °C | dTm 36 [5]: 2.0 °C | dTm 36 [6]: -0.7 °C | dTm 36 [7]: 3.7 °C | dTm 36 [8]: -1.4 °C | dTm 36 [9]: -0.1 °C | dTm 36 [10]: 7.4 °C | dTm 36 [11]: 5.1 °C | dTm 36 [12]: 1.7 °C | dTm 36 [13]: -0.9 °C
Compound: COc1cc(N2CCN(C)CC2)ccc1Nc1ncc2cc(-c3ccc(-c4cccc(C)n4)cc3Cl)c(=O)n(CCCCN)c2n1 [compound 36, 8-(4-Aminobutyl)-6-(2-chloro-4-(6-methylpyridin-2-yl)phenyl)-2-((2-methoxy-4-(4-methylpiperazin-1-yl)phenyl)amino)pyrido[2,3-d]pyrimidin-7(8H)-one]
